{
  "source": "patent US12447191B2",
  "about": "“Topical application of polypeptide in the treatment of skin damage” (WUHAN YICHENG BIOTECHNOLOGY CO., LTD., priority 2020, dated 2025)",
  "key": {"[1]": {"test_system": "deep II degree burn (scald wound)", "test": "Animal Experiment 1: rat scald (deep II degree burn) model", "type": "in vivo, SD rats", "settings": "after 14 days of treatment; smeared twice a day on scald wound; other side untreated control", "method": "The following will verify the therapeutic function of the medicament prepared in embodiments 1 to 3 on trauma and burns through experiments. The pharmacodynamic effects of polypeptide drugs were evaluated by establishing a rat burn model or a rat trauma model. Experimental Purpose: to study the therapeutic effect of polypeptide drug of the invention on scald. Experimental Animals: SD rats, half male and half female, 200 g±10 g. The Modeling Scheme: the rats' back were depilated with 10% barium sulfide the day before the experiment, and anesthetized by intraperitoneal injection before scalding. The rat models were made with a constant temperature and pressure scald apparatus. After scalding, 5 ml lactate Ringer's solution was intraperitoneally injected immediately to prevent shock. The criteria for successful modeling: disappearance of local epidermis; expansion of blood vessels in epidermis, dermis and subcutaneous tissue; edema of subcutaneous tissue; infiltration of acute and chronic inflammatory cells in dermis and subcutaneous tissue; the above description is a deep II degree burn. Animal Grouping: 8 SD rats in total Ointment Group (Ointment prepared in embodiment 2): 4 rats, half male and half female, scalded on both sides of the body. After scalding, one side was administered, and the other side was used as control. […]"}, "[2]": {"test_system": "HaCAT cells", "test": "Cell Differentiation Experiment", "type": "cell-based, human", "settings": "10 μL polypeptide (10 mg/ml), 48 h", "method": "1. Cell Resuscitation: • (1) HaCAT cells (human immortalized epidermal cells, purchased from Wuhan University Cell Preservation Center, GDC106) are taken out of liquid nitrogen, quickly put into a 37° C. water bath, and gently shake the cryopreservation tube to dissolve the cryopreservation solution;\n(2) After dissolution, the HaCAT cells were transferred to a centrifuge tube containing 5 ml of culture medium. The cells were collected by centrifugation, centrifuged at 1000 rmp at room temperature for 5 min, and the supernatant was discarded;\n(3) The HaCAT cells were suspended in a complete medium containing 10% fetal bovine serum, inoculated into a culture dish, gently blown and mixed, and cultured at 37° C. and 5% CO2 saturated humidity.\nWhen the cell density reaches 80%, the HaCAT cells will be subcultured:\n(1) Discard the culture medium and wash it once with PBS;\n(2) Add 1-2 ml 0.25% trypsin to digest the cells. Observe under the microscope. Digest for 1-2 min. It can be seen that the cells are separated from each other and become round, that is, the digestion is completed;\n(3) Quickly discard the trypsin, add the complete culture medium, blow the cells to make a single cell suspension, pass the passage in a ratio of 1:3, and expand the culture under 37° C. and 5% CO2 saturated humidity. […]"}},
  "note": "No end group written: not given here.",
  "data": [
    {"sequence": "MPYSTELIFYIEMDP [polypeptide]", "values": [
      {"measurement": "Photo observation of wound healing", "setting": "[1]", "result": "can obviously promote the wound healing"},
      {"measurement": "Differentiation of HaCAT cells (morphology on photos)", "setting": "[2]", "result": "some cells are differentiated"}
    ]}
  ]
}
